The values below come from PubChem BioAssay AID2640 (Southern Research Specialized Biocontainment Screening …, 2010).

The subject of experiment [1] is S. Typhimurium polymyxin resistance, OD600 growth, 24 h. Briefly: compound effect on Typhimurium polymyxin resistance – wild type vs phoP- strains, OD600 (AID 2640).
Assay in experiment [2]: as above
Conditions: S. Typhimurium polymyxin resistance, OD600 growth, 24 h; for IC50 shift difference / IC50 shift: measured here: polymyxin IC50 shift, at 150 µM; for IC50 shift difference: WT minus phoP-.

The mark [3] stands for this setting: WT polymyxin IC50 at 150 uM, stronger effect = lower value.
Setting [4] is: phoP- polymyxin IC50 at 150 uM, stronger effect = lower value.
Where [5] appears, read: WT strain, stronger effect = higher value.
Where [6] appears, read: phoP- strain, stronger effect = lower value.

Active and inactive are the calls of the source.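 How the source made its calls: active means wild-type drop in polymyxin IC50 at top compound dose over twice that in the PhoP-lacking mutant; inactive means the rest.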

For `Cc1ccc(Nc2cc(C)c3c(O)cccc3n2)cc1C`, the 50% inhibitory concentration (IC50) came to 2.25 µM in experiment [1] (setting [3]) and 0.088 µM in experiment [1] (setting [4]). In addition, the outcome in experiment [2] was inactive. In experiment [2] (stronger effect = higher value), the IC50 shift difference was 2.63. In addition, the IC50 shift in experiment [2] (setting [5]) is 2.54; in experiment [2] (setting [6]), -0.09.
`COc1c(N2CCN(C(=S)NCc3ccccc3)C(C)C2)c(F)cc2c(=O)c(C(=O)O)cn(C3CC3)c12` (centres undefined): the IC50 in experiment [1] is 10 µM; in experiment [1] (setting [4]), 0.677 µM. The IC50 shift difference in experiment [2] (stronger effect = higher value) was 6.39. Besides, the IC50 shift in experiment [2] (setting [5]) was 9.16; in experiment [2] (setting [6]), 2.76.
For `O=C1C2=C(Nc3ccccc3SC2c2ccco2)c2ccccc21` (centres undefined), the IC50 in experiment [1] is 30 µM; in experiment [1] (setting [3]), 0.04 µM. Moreover, the IC50 shift difference in experiment [2] (stronger effect = higher value) is 14.6. For the same compound, the figures for the IC50 shift in experiment [2] (setting [5]) and in experiment [2] (setting [6]) were 18.2 and 3.6, respectively.
`O=C(Nc1ccc(Cl)cc1)N1CCCN(Cc2ccccc2F)C1`: the half-maximal inhibitory concentration (IC50) was 30 µM in experiment [1], 0.62 µM in experiment [1] (setting [3]) and 26.9 µM in experiment [1] (setting [4]). The IC50 shift difference in experiment [2] (stronger effect = higher value) came out at 27.6. Further, the IC50 shift in experiment [2] (setting [5]) is 5.14; in experiment [2] (setting [6]), -22.4.
Regarding `CCn1cc(C(=O)O)c(=O)c2cc(F)c(N3CCN(C(=S)NC(=O)c4ccccc4Cl)CC3)cc21`, the IC50 in experiment [1] was 20 µM; in experiment [1] (setting [3]), 0.138 µM; in experiment [1] (setting [4]), 0.706 µM. Further, the IC50 shift difference in experiment [2] (stronger effect = higher value) was found to be 10.3. For the same compound, the results for the IC50 shift in experiment [2] (setting [5]) and in experiment [2] (setting [6]) were 9.6 and -0.66, respectively.
In the case of `S=C(NCc1ccc(Cl)cc1)Nc1ccncc1`, the half-inhibitory concentration (IC50) was 30 µM in experiment [1], 3.59 µM in experiment [1] (setting [3]) and 24 µM in experiment [1] (setting [4]). The IC50 shift difference in experiment [2] (stronger effect = higher value) worked out at 20.4. Besides, the IC50 shift was 3.93 in experiment [2] (setting [5]) and -16.4 in experiment [2] (setting [6]).

As a reminder, the IC50 is the concentration at which inhibition is half-maximal.
